Source: US20060286040A1, “Medicament compositions comprising a heterocyclic compound and an anticholinergic” (Kyowa Hakko Kogyo Co., Ltd., priority 2003, published 2006)

Test system: guinea pig main bronchus
Assay: EFS-induced cholinergic and tachykininergic contraction in the guinea pig main bronchus (organ bath)
Conditions: for Cholinergic Contraction, % of the first contraction / Tachykininergic contraction, % of the first contraction: EFS 30 V, 0.5 ms, 8 Hz, 15 s, 10 nmol/L tiotropium bromide and/or 30 μmol/L Compound 2, measured 20 min after addition, indomethacin 5 μmol/L, means ± S.E.M
[1] = 10 nmol/L tiotropium bromide and/or 30 μmol/L Compound 2, 20 min after addition

COc1ccc(C(=O)Cc2c(Cl)cncc2Cl)c2c1OC1(CCCC1)O2 [Compound 2]
Effect on EFS-induced tachykininergic contraction (in words) [1]: inhibited the tachykininergic contraction
Cholinergic Contraction, % of the first contraction: 105.8 ± 2.4 % of the first contraction
Tachykininergic contraction, % of the first contraction: 66.1 ± 6.5 % of the first contraction

tiotropium bromide
Effect on EFS-induced cholinergic contraction (in words) [1]: inhibited the cholinergic contraction
Cholinergic Contraction, % of the first contraction: 59.7 ± 6.3 % of the first contraction
Tachykininergic contraction, % of the first contraction: 90.9 ± 8.3 % of the first contraction
